Among the data in US4902709A, “Novel antihypercholesterolemic compounds” (Merck & Co., Inc., priority 1988, dated 1990) are IC50 values, retold here.

As a reminder, the IC50 is the point on the concentration scale where inhibition reaches its midpoint. Lower therefore signals inhibition by little substance.

SMILES strings stand for the structures.

The assay deals with T1, HMG-CoA reductase (Rattus norvegicus, UniProt P51639).
T1 sequence (P51639 1-887): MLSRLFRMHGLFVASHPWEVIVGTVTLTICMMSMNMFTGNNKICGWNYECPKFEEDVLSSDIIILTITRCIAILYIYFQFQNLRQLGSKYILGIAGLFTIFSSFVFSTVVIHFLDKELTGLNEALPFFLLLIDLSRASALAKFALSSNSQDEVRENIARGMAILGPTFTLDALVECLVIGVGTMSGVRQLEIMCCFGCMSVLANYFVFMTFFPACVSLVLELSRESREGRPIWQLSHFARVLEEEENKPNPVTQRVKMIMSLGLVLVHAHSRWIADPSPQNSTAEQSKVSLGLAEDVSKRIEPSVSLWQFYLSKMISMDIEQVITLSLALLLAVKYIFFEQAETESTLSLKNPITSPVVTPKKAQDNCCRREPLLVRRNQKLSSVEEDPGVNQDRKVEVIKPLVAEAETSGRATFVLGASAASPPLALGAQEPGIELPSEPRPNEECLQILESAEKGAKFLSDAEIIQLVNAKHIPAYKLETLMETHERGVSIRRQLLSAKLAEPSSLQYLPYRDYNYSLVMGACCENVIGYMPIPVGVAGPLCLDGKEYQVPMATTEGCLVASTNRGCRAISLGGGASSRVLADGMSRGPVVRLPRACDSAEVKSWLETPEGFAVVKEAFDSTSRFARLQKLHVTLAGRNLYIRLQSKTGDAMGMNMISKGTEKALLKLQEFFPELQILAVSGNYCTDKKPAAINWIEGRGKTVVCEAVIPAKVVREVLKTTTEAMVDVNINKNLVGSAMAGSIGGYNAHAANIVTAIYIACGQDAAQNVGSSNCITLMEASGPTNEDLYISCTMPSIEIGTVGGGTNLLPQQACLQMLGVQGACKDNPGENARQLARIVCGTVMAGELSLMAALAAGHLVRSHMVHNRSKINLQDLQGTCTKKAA
Put plainly: intrinsic HMG-CoA reductase inhibition (in vitro procedure detailed in U.S. Pat. No. 4,668,699). Type of assay: biochemical. The conditions noted are these: 2,4 dichloro derivatives of formula I.
`O=C1C[C@@H](c2ccccc2)C[C@H](CCc2ccc(Cl)cc2Cl)O1` (relative stereo) [Example 1, trans-6-[2-(2,4-dichlorophenyl)ethyl]-3,4,5,6-tetrahydro-4-phenyl-2H-pyran-2-one] registered an IC50 of 21 µM. Compound `O=C1C[C@H](c2ccc(-c3ccccc3)cc2)C[C@@H](CCc2ccc(Cl)cc2Cl)O1` (relative stereo) [Example 2] came in with an IC50 of 33.6 µM.

On to `COc1ccc([C@@H]2CC(=O)O[C@@H](CCc3ccc(Cl)cc3Cl)C2)cc1` (relative stereo) [Example 4], for which half-maximal inhibition (IC50) required 43.5 µM. In turn, `O=C1C[C@@H](c2ccc(O)cc2)C[C@H](CCc2ccc(Cl)cc2Cl)O1` (relative stereo) [Example 5] returned an IC50 of 20.8 µM. Compound `O=C1C[C@@H](c2ccccc2CO)C[C@H](CCc2ccc(Cl)cc2Cl)O1` (relative stereo) [Example 8] gave an IC50 of 42 µM.
